# How the values were obtained:
# Assay type in all cases: cell-based
# IKAROS = molecular target: T1, IKAROS (Homo sapiens, UniProt Q13422+Q96SW2); experiment: Western blot IKAROS degradation assay in MV-4-11 cells; conditions: 6-8 hours
# T1 construct: endogenous in cells; host or cells: MV-4-11
# Protocol: (§1) MV-4-11 cells were grown in RPMI 1640 media supplemented with 10% fetal bovine serum, streptomycin and penicillin.
# (§2) Cells were cultured at approximately 10^6 cells per mL and incubated in DMSO or the indicated compound for 6-8 hours. Whole cell extracts were prepared using RIPA buffer according to manufacturer's protocol (Pierce). Briefly, 3×10^6 cells were washed once in PBS, the cell pellets were resuspended in RIPA buffer and allowed to incubate for 15 minutes on ice. Cells debris was removed by centrifugation and the cleared whole cell lysates were transferred to new tubes for further analysis.
# (§3) For Western blot analysis, whole cell protein extracts were separated on 4-12% SDS-polyacrylamide gels, transferred to nitrocellulose and probed with the indicated primary antibodies. Membranes were subsequently washed and probed with the appropriate IRDye secondary antibodies (LI-COR). The signal was detected using the Odyssey Imaging System (LI-COR).
# (§4) The following antibodies were used in these studies: Anti-eRF3/GSPT1: Abcam, ab126090 (Cambridge, Mass.); Anti-Ikaros: Abcam, ab191394 (Cambridge, Mass.); Anti-CK1α: Abcam, ab108296 (Cambridge, Mass.); β-actin (8H10D10) mouse monoclonal antibody: Cell Signaling Technology, #3700 (Danvers, Mass.); IRDye 680RD Goat anti-rabbit antibody: LI-COR, 926-68071 (Lincoln, Nebr.); IRDye 800CW Goat anti-mouse antibody: LI-COR, 926-32210 (Lincoln, Nebr.).
# (§5) In each of Tables 1-3, the % degradation values are reported as “A”, “B”, “C”, or “D.” “A” represents a % degradation value of less than 25% (value<25%); “B” represents a % degradation value of equal to or more than 25% and less than 50% (25%≤value<50%); “C” represents a % degradation value of equal to or more than 50% and less than 75% (50%≤value<75%); and “D” represents a % degradation value of equal to or more than 75% (value≥75%).
# GSPT1 = molecular target: T2, GSPT1 (Homo sapiens, UniProt P15170+Q96SW2); experiment: Western blot GSPT1 degradation assay in MV-4-11 cells; conditions: 1 μM, MV-4-11 cells, 6-8 hours
# T2 construct: whole cell protein extracts were separated on 4-12% SDS-polyacrylamide gels; endogenous in cells; host or cells: MV-4-11
# T2 sequence (P15170 whole entry): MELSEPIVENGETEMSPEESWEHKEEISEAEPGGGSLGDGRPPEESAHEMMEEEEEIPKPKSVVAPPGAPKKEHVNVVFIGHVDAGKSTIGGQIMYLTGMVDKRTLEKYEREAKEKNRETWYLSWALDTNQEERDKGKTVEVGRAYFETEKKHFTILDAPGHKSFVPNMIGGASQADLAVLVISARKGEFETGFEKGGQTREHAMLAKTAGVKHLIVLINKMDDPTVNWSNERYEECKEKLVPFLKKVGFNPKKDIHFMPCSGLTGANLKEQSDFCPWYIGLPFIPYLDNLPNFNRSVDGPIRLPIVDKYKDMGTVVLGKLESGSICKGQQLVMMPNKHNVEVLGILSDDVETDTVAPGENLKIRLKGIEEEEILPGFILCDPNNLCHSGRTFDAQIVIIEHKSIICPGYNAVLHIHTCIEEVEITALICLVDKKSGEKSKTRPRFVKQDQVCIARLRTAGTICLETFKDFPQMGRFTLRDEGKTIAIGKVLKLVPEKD
# T2 sequence (Q96SW2 whole entry): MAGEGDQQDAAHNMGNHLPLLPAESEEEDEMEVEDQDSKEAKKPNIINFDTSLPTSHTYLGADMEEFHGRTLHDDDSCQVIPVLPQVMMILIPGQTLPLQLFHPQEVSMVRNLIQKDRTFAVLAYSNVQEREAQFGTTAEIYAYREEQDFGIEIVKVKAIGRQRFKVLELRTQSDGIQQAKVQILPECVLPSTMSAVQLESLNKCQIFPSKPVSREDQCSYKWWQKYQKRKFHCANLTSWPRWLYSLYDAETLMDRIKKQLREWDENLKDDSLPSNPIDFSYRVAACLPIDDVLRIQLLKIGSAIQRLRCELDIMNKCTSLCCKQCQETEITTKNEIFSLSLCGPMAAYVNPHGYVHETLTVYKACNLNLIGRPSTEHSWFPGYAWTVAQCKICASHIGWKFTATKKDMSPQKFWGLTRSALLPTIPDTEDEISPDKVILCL
# T2 sequence (Q16531 whole entry partner): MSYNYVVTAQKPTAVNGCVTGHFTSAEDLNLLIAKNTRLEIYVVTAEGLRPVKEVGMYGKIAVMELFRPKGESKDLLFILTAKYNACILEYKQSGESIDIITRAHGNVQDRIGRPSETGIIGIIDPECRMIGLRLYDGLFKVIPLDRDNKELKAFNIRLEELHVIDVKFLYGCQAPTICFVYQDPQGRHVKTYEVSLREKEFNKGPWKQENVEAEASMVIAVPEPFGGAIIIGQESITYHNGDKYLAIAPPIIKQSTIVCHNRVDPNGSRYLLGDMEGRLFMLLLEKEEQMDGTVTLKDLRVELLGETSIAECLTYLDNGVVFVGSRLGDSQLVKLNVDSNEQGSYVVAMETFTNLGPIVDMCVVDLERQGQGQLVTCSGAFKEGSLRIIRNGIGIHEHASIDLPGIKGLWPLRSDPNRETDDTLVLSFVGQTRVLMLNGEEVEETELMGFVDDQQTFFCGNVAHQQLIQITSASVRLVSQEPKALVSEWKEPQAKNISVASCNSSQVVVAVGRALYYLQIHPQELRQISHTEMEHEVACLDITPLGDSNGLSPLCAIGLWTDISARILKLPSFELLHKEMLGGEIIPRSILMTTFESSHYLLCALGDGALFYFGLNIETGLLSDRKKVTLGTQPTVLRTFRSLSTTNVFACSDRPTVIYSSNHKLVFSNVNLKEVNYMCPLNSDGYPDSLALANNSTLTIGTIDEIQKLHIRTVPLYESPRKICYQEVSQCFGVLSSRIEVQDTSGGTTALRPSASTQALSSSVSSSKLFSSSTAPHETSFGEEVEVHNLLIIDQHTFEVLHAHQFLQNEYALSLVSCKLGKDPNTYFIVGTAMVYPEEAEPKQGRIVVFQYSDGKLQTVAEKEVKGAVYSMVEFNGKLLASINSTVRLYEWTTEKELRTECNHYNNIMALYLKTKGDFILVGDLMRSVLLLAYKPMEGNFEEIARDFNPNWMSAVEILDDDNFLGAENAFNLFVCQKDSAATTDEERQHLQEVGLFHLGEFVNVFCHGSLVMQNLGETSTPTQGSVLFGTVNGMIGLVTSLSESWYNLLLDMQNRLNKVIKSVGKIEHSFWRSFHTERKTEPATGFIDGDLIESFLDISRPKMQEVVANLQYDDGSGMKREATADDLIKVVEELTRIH
# Protocol: as §1, §2, §3, §4, §5
# IL-1β = IL-1β inhibition assay, LPS-induced PBMCs or CD14+ monocytes, Meso Scale; conditions: 100 ng/mL LPS 18-24 h
# Protocol: (§6) Either frozen primary blood mononuclear cells (PBMCs) or frozen CD14+ mobilized peripheral blood monocytes were purchased from AllCells (PB003F, Normal Peripheral Blood MNC (Alameda, Calif.)). Cells were quick thawed, washed 1-time with RPMI-1640 (10% FBS/1% Pen-Strep) and plated in 96 well plates at 200,000 cells per well. Cells were pretreated with DMSO only or with the indicated compound for 1 h and then induced with 100 ng/mL lipopolysaccharide (LPS) for 18-24 h. The supernatant was analyzed for IL-1β, IL-6, and TNFα, using Meso Scale assay according to manufacturer's protocol. The negative control wells were treated with DMSO.
# TNFα = experiment: TNF-α inhibition assay, LPS-induced PBMCs or CD14+ monocytes, Meso Scale; conditions: 100 ng/mL LPS 18-24 h
# Protocol: as §6
# IL-2 = IL-2 fold-change assay, anti-CD3 stimulated PBMCs, Mesoscale; conditions: Homo sapiens, PBMC, 24 h, fold difference from the DMSO control
# Protocol: For the IL-2 analysis, 96 well plates were precoated with 1 μg/mL anti-human CD3 antibody (OKT3, eBioscience Inc., San Diego, Calif.). After washing with PBS, the indicated compound was added (50 μL/well) followed by PBMCs diluted at 3-4 million cells/mL (150 μL/well). Plates were incubated for 24 h and the supernatants collected for Mesoscale IL-2 analysis. IL-2 activity is measured as fold difference from the DMSO control.
# In Table 7, the fold-change values are reported as “A”, “B”, “C”, or “D”. “A” represents a fold-change value of equal to or less than 1 (value≤1); “B” represents a fold-change value of more than 1 and equal to or less than 2 (1<value≤2); “C” represents a fold-change value of more than 2 and equal to or less than 3 (2<value≤3); and “D” represents a fold-change value of more than 3 (value>3).
# MOLM-13 cells = experiment: MOLM-13 cell viability assay (CellTiter-Glo 2, 3 days, 2500 cells/well); conditions: Homo sapiens, MOLM-13, 72 h, percentage of DMSO control
# Protocol: MOLM-13 cells were cultured in RPMI 1640 media supplemented with 10% fetal bovine serum, streptomycin and penicillin, and were plated in white walled 96-well plates at 2500 cells/well. Cells were incubated in DMSO (control) or the indicated compound for 3 days at 37° C. and 5% CO2. Following the incubation period, 100 μL of CellTiterGlow2 (CTG2) reagent (CellTiter-Glo®2 Luminescent Cell Viability Assay, Promega (Madison, Wis.)) was added to each well. Following a 10 minutes incubation with shaking, luminescence was measured using the EnVision Multimode plate reader.
# The MOLM-13 cell viability values, measured as percentages of the DMSO control, are reported in Table 8 as “A”, “B”, “C”, or “D.” “A” represents a % viability value of less than 40% (value<40%). “B” represents a % viability value of equal to or more than 40% and less than 60% (40%≤value<60%). “C” represents a % viability value of equal to or more than 60% and less than 90% (60%≤value<90%). “D” represents a % viability value of equal or more than 90% (value≥90%).
# CK1α = molecular target: T3, CK1α (Homo sapiens, UniProt P48729+Q96SW2); experiment: Western blot CK1α degradation assay in MV-4-11 cells; conditions: 6-8 hours
# T3 construct: endogenous in cells; host or cells: MV-4-11
# T3 sequence (P48729 whole entry): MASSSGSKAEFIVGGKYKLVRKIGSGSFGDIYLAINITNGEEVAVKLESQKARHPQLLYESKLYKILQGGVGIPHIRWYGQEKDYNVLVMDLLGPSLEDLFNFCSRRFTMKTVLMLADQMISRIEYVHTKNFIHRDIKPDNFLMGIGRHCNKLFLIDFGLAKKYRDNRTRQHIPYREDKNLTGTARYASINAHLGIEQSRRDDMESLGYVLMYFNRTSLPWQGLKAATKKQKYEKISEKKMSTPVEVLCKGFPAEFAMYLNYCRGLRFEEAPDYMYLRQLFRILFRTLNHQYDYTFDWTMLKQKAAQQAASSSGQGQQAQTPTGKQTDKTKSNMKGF
# T3 sequence (Q96SW2 whole entry): as the sequence (Q96SW2 whole entry) above
# T3 sequence (Q16531 whole entry partner): as the sequence (Q16531 whole entry partner) above
# Protocol: as §1, §2, §3, §4, §5
# T1 sequence (Q13422 whole entry): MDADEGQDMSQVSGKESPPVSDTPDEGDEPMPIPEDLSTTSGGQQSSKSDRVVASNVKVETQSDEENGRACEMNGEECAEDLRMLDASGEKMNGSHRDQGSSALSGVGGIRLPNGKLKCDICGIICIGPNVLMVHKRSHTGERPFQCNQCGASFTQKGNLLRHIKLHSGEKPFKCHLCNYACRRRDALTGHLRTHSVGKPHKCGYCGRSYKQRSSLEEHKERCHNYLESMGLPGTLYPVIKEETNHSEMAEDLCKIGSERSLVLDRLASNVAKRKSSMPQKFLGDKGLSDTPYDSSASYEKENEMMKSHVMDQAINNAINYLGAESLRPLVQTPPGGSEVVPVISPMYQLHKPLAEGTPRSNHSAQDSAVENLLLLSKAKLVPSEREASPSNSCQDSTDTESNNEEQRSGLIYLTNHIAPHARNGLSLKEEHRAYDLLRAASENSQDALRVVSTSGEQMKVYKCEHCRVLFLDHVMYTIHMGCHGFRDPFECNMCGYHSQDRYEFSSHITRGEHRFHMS
# T1 sequence (Q96SW2 whole entry): as the sequence (Q96SW2 whole entry) above
# T1 sequence (Q16531 whole entry partner): as the sequence (Q16531 whole entry partner) above
SMILES,IKAROS % Degradation at 1 μM (IKAROS),GSPT1 % Degradation at 1 μM (GSPT1),inhibition at 1 µM (IL-1β),inhibition at 1 µM (TNFα),fold induction at 1 µM (IL-2),viability at 1 µM (MOLM-13 cells),CK1α % Degradation at 1 μM (CK1α)
"Cc1ccc(NCC(=O)NCc2scc3c2CN(C2CCC(=O)NC2=O)C3=O)cc1Cl (centres unmarked) [Compound 2, 2-((3-chloro-4-methylphenyl)amino)-N-((5-(2,6-dioxopiperidin-3-yl)-4-oxo-5,6-dihydro-4H-thieno[3,4-c]pyrrol-1-yl)methyl)acetamide]",D (a % degradation value of equal to or more than 75% (value≥75%)),C (a % degradation value of equal to or more than 50% and less than 75% (50%≤value<75%)),> 75%,50 to 75%,1 to 2,> 90%,
"Cc1ccc(NCC(=O)NCc2scc3c2CN(C2CCC(=O)NC2=O)C3=O)cc1N(C)C (centres unmarked) [Compound 4, 2-((3-(dimethylamino)-4-methylphenyl)amino)-N-((5-(2,6-dioxopiperidin-3-yl)-4-oxo-5,6-dihydro-4H-thieno[3,4-c]pyrrol-1-yl)methyl)acetamide]",B (a % degradation value of equal to or more than 25% and less than 50% (25%≤value<50%)),B (a % degradation value of equal to or more than 25% and less than 50% (25%≤value<50%)),50 to 75%,50 to 75%,2 to 3,> 90%,
"Cc1ccc(NCC(=O)NCc2cc3c(s2)CN(C2CCC(=O)NC2=O)C3=O)cc1Cl (centres unmarked) [Compound 6, 2-((3-chloro-4-methylphenyl)amino)-N-((5-(2,6-dioxopiperidin-3-yl)-4-oxo-5,6-dihydro-4H-thieno[2,3-c]pyrrol-2-yl)methyl)acetamide]",,,< 30%,< 30%,,,
"Cc1ccc(NC(C)C(=O)NCc2scc3c2CN(C2CCC(=O)NC2=O)C3=O)cc1Cl (centres unmarked) [Compound 7, 2-((3-chloro-4-methylphenyl)amino)-N-((5-(2,6-dioxopiperidin-3-yl)-4-oxo-5,6-dihydro-4H-thieno[3,4-c]pyrrol-1-yl)methyl)propanamide]",,,> 75%,> 75%,2 to 3,,
"CN(C)c1ccc(NCC(=O)NCc2scc3c2CN(C2CCC(=O)NC2=O)C3=O)cc1Cl (centres unmarked) [Compound 8, 2-((3-chloro-4-(dimethylamino)phenyl)amino)-N-((5-(2,6-dioxopiperidin-3-yl)-4-oxo-5,6-dihydro-4H-thieno[3,4-c]pyrrol-1-yl)methyl)acetamide]",,,> 75%,> 75%,1 to 2,,
"O=C(CNc1ccc(CN2CCOCC2)cc1)NCc1scc2c1CN(C1CCC(=O)NC1=O)C2=O (centres unmarked) [Compound 9, N-((5-(2,6-dioxopiperidin-3-yl)-4-oxo-5,6-dihydro-4H-thieno[3,4-c]pyrrol-1-yl)methyl)-2-((4-(morpholinomethyl)phenyl)amino)acetamide]",,,50 to 75%,50 to 75%,1 to 2,,
"O=C(CNc1cccc(CN2CCOCC2)c1)NCc1scc2c1CN(C1CCC(=O)NC1=O)C2=O (centres unmarked) [Compound 11, N-((5-(2,6-dioxopiperidin-3-yl)-4-oxo-5,6-dihydro-4H-thieno[3,4-c]pyrrol-1-yl)methyl)-2-((3-(morpholinomethyl)phenyl)amino)acetamide]",B (a % degradation value of equal to or more than 25% and less than 50% (25%≤value<50%)),B (a % degradation value of equal to or more than 25% and less than 50% (25%≤value<50%)),30 to 50%,30 to 50%,1 to 2,< 40%,
Cc1ccc(NCC(=O)NCc2ccc3c(c2)CN([C@H]2CCCC(=O)NC2=O)C3=O)cc1Cl [Compound 12],,C (a % degradation value of equal to or more than 50% and less than 75% (50%≤value<75%)),< 30%,< 30%,1 to 2,,
"Cc1ccc(NC(C)C(=O)NCc2ccc3c(c2)CN(C2CCC(=O)NC2=O)C3=O)cc1Cl (centres unmarked) [Compound 15, 2-((3-chloro-4-methylphenyl)amino)-N-((2-(2,6-dioxopiperidin-3-yl)-1-oxoisoindolin-5-yl)methyl)propanamide]",,,,,1 to 2,,
"Cc1ccc(NCC(=O)NCc2ccc3c(c2)C(=O)N(C2CCC(=O)NC2=O)C3=O)cc1Cl (centres unmarked) [Compound 19, 2-((3-chloro-4-methylphenyl)amino)-N-((2-(2,6-dioxopiperidin-3-yl)-1,3-dioxoisoindolin-5-yl)methyl)acetamide]",B (a % degradation value of equal to or more than 25% and less than 50% (25%≤value<50%)),D (a % degradation value of equal to or more than 75% (value≥75%)),,30 to 50%,≤ 1,60 to 90%,
"O=C(CNc1ccc(N2CCOCC2)c(Cl)c1)NCc1ccc2c(c1)CN(C1CCC(=O)NC1=O)C2=O (centres unmarked) [Compound 22, 2-((3-chloro-4-morpholinophenyl)amino)-N-((2-(2,6-dioxopiperidin-3-yl)-1-oxoisoindolin-5-yl)methyl)acetamide]",,,50 to 75%,50 to 75%,2 to 3,,
"Cc1cc(NCC(=O)NCc2ccc3c(c2)CN(C2CCC(=O)NC2=O)C3=O)ccc1N1CCOCC1 (centres unmarked) [Compound 23, N-((2-(2,6-dioxopiperidin-3-yl)-1-oxoisoindolin-5-yl)methyl)-2-((3-methyl-4-morpholinophenyl)amino)acetamide]",C (a % degradation value of equal to or more than 50% and less than 75% (50%≤value<75%)),B (a % degradation value of equal to or more than 25% and less than 50% (25%≤value<50%)),30 to 50%,30 to 50%,1 to 2,40 to 60%,
CN(C)Cc1ccc(NCC(=O)NCc2ccc3c(c2)CN(C2CCC(=O)NC2=O)C3=O)cc1Cl (centres unmarked) [Compound 26],,C (a % degradation value of equal to or more than 50% and less than 75% (50%≤value<75%)),,,,,C (a % degradation value of equal to or more than 50% and less than 75% (50%≤value<75%))
